Laboratory results published in patent publication US11034692B1 (Genentech, Inc., priority 2017, dated 2021).

biological target: HPK1; assay: HPK1 Lantha Binding Assay ("Lanth"); details: Table B1-1, read-out: HPK1 Ki (μM) (Lanth)
Method: HPK1 Lantha Binding Assay (“Lanth”)
The compounds to be tested were diluted by preparing 12.5 uL/well of 5 mM compound (100×) in columns 2 and 13 and 10 ul/well of DMSO in columns 3-12, 14-23, and wells A1-H1 and I24-P24 of the compound plate using a Bravo liquid handling platform. For the reference compound, the top concentration was 1 mM. To the plate was added 10 ul 2 mM staurosporine in wells J1-P1 and A24-H24. A 11 point 5-fold compound serial dilution was performed using the Bravo liquid handling platform. From the plate were transferred 2.5 ul of the solutions from column 2 and column 13 to the 10 ul of DMSO in columns 3 and 14 & so on. The compound plate was centrifuged at 2500 rpm for 1 min. From the compound plate was transferred 80 nl of the compounds into an assay plate using the Echo liquid handler system. One compound plate makes two assay plates. Each assay plate is sealed and stored in an N2 cabinet.
The following assay concentrations and times were used: 2 nM HPK1, 2 nM Eu-Anti-GST Ab, and 15 nM Tracer222, with 60 min incubation time.
III. HPK Lantha Binding Assay:
For the binding assay, 4 ul 2×HPK1 and Eu-anti-GST antibody were added to each well of the assay plate using a Multidrop reagent dispenser. The solutions were incubated in a 23 C incubator for 1 h. To each well of the assay plate was added 4 ul 2× Tracer-222 using a Multidrop reagent dispenser. The solutions were again incubated in a 23 C incubator for 1 h. The results of the assay were read using an Envision plate reader with the following parameters: TR_FRET, 340ex/615 and 665em; 100 usec Delay; and 200 usec integration.
Compound Ki was analyzed using Morrison ki fit model in XL-fit • a. fit=(1−((((E+x)+(Ki*(1+(S/Kd))))−(((((E+x)+(Ki*(1+(S/Kd))))[…])−((4*E)*x))^0.5))/(2*E))) • res=(y-fit) • b. Parameters: • E=enzyme concentration • S=Tracer222 concentration, Kd=Tracer222 Kd • All measurements reported using the same units (uM)
Exemplary compounds of Formula I or Ia were tested in the binding assays. The Ki data in Table B1-1 are based on the “Lanth” assay.

Q: Which Ki does the source give for `Cc1ccncc1-c1cc2cc(NC(=O)[C@H]3CC[C@@H]3C)ncc2c(N)n1` [Compound 320, (1S,2S)—N-(8-amino-6-(4-methylpyridin-3-yl)-2,7-naphthyridin-3-yl)-2-methylcyclobutanecarboxamide] here?
A: The Ki was 7.82 nM.

Q: For `NCCOCCn1cc([C@H]2C[C@@H]2C(=O)Nc2cc3cc(-c4c(Cl)cccc4Cl)nc(N)c3cn2)cn1` [Compound 295, (1S,2S)—N-[8-amino-6-(2,6-dichlorophenyl)-2,7-naphthyridin-3-yl]-2-[1-[2-(2-aminoethoxy)ethyl]-1H-pyrazol-4-yl]cyclopropane-1-carboxamide], which Ki is on record?
A: Its Ki is 0.287 nM.

Q: Which Ki does the source give for `Cc1c(N)cncc1-c1cc2cc(NC(=O)[C@@H]3C[C@H]3CC#N)ncc2c(N)n1` [Compound 248, (1R,2S)—N-[8-amino-6-(5-amino-4-methylpyridin-3-yl)-2,7-naphthyridin-3-yl]-2-(cyanomethyl)cyclopropane-1-carboxamide] here?
A: The Ki was 1.03 nM.

Q: For `CCc1ccncc1-c1cc2cc(NC(=O)C3=CC3)ncc2c(N)n1` [Compound 68, N-[8-amino-6-(4-ethyl-3-pyridyl)-2,7-naphthyridin-3-yl]cyclopropene-1-carboxamide], which Ki is on record?
A: Its Ki is 545 nM.

Q: For `Cc1ccncc1-c1nc(N)c2cnc(NC(=O)[C@@H]3C[C@H]3CC#N)cc2c1C1CC1` [Compound 316, (1R,2S)—N-(8-amino-5-cyclopropyl-6-(4-methylpyridin-3-yl)-2,7-naphthyridin-3-yl)-2-(cyanomethyl)cyclopropanecarboxamide], which Ki is on record?
A: Its Ki is 0.522 nM.

Q: `Cc1cc(Nc2cc3cc(-c4cnccc4C)nc(N)c3cn2)n(CCO)n1` [Compound 261, 2-(5-[[8-amino-6-(4-methylpyridin-3-yl)-2,7-naphthyridin-3-yl]amino]-3-methyl-1H-pyrazol-1-yl)ethan-1-ol] was tested. Which Ki did it give?
A: Its Ki is 36.7 nM.

Q: How did the Ki turn out when `Cc1ccncc1-c1cc2cc(NC(=O)[C@@H]3C[C@H]3c3cnn(CCOCCN)c3)ncc2c(N)n1` [Compound 293, (1R,2R)—N-[8-amino-6-(4-methylpyridin-3-yl)-2,7-naphthyridin-3-yl]-2-[1-[2-(2-aminoethoxy)ethyl]-1H-pyrazol-4-yl]cyclopropane-1-carboxamide] was run?
A: The Ki was 0.668 nM.

Q: How did the Ki turn out when `Cc1ccncc1-c1cc2cc(Nc3cnn(CCO)c3)ncc2c(N)n1` [Compound 169, 2-[4-[[8-amino-6-(4-methyl-3-pyridyl)-2,7-naphthyridin-3-yl]amino]pyrazol-1-yl]ethanol] was run?
A: Its Ki is 0.48 nM.

Q: Which Ki does the source give for `Cc1ccnc(-c2ccccc2)c1-c1cc2cc(NC(=O)[C@H]3C[C@@H]3c3cnn(C)c3)ncc2c(N)n1` [Compound 318, (1S,2S)—N-(8-amino-6-(4-methyl-2-phenylpyridin-3-yl)-2,7-naphthyridin-3-yl)-2-(1-methyl-1H-pyrazol-4-yl)cyclopropanecarboxamide] here?
A: The Ki was 0.032 nM.

Q: How did the Ki turn out when `Cc1ccncc1-c1cc2cc(NC(=O)C3CC3(C)CO)ncc2c(N)n1` (stereo not drawn) [Compound 209, N-(8-amino-6-(4-methylpyridin-3-yl)-2,7-naphthyridin-3-yl)-2-(hydroxymethyl)-2-methylcyclopropanecarboxamide] was run?
A: The Ki was 30.7 nM.

Q: How did the Ki turn out when `CCc1ccncc1-c1cc2cc(NC(=O)c3cc(C)[nH]n3)ncc2c(N)n1` [Compound 70, 5-Methyl-1H-pyrazole-3-carboxylic acid [8-amino-6-(4-ethylpyridin-3-yl)-[2,7]naphthyridin-3-yl]amide] was run?
A: Its Ki is 27.6 nM.

Q: `CCc1ccncc1-c1cc2cc(NC(=O)CCC#N)ncc2c(N)n1` [Compound 28, N-[8-amino-6-(4-ethyl-3-pyridyl)-2,7-naphthyridin-3-yl]-3-cyano-propanamide] was tested. Which Ki did it give?
A: The Ki was 14.9 nM.

Q: How did the Ki turn out when `Cc1ccncc1-c1cc2cc(NC(=O)N[C@H]3CCC[C@@H]3O)ncc2c(N)n1` [Compound 134, 1-[8-amino-6-(4-methyl-3-pyridyl)-2,7-naphthyridin-3-yl]-3-[(1S,2S)-2-hydroxycyclopentyl]urea] was run?
A: The Ki was 5.6 nM.

Q: `Nc1nc(-c2cnccc2CCO)cc2cc(NC(=O)[C@@H]3C[C@H]3c3cccnc3)ncc12` [Compound 253, (1R,2R)—N-[8-amino-6-[4-(2-hydroxyethyl)pyridin-3-yl]-2,7-naphthyridin-3-yl]-2-(pyridin-3-yl)cyclopropane-1-carboxamide] was tested. Which Ki did it give?
A: The Ki was 0.0892 nM.

Q: For `Cc1ccncc1-c1cc2cc(NC(=O)[C@H]3C[C@@H]3C#N)ncc2c(N)n1` [Compound 202, (1S,2S)—N-(8-amino-6-(4-methylpyridin-3-yl)-2,7-naphthyridin-3-yl)-2-cyanocyclopropane-1-carboxamide], which Ki is on record?
A: Its Ki is 0.4 nM.

Q: How did the Ki turn out when `Cc1ccncc1-c1cc2cc(NC(=O)[C@H]3CC[C@H]3C)ncc2c(N)n1` [Compound 321, (1S,2R)—N-(8-amino-6-(4-methylpyridin-3-yl)-2,7-naphthyridin-3-yl)-2-methylcyclobutanecarboxamide] was run?
A: The Ki was 57.4 nM.

Q: `Cc1ccncc1-c1cc2cc(NC(=O)NC3CNC3)ncc2c(N)n1` [Compound 175, 1-(8-amino-6-(4-methylpyridin-3-yl)-2,7-naphthyridin-3-yl)-3-(azetidin-3-yl)urea] was tested. Which Ki did it give?
A: The Ki was 3.4 nM.

Q: How did the Ki turn out when `Cc1ccncc1-c1cc2cc(Nc3cnn(C(C)(C)C(=O)N(C)C)c3)ncc2c(N)n1` [Compound 183, 2-[4-[[8-amino-6-(4-methyl-3-pyridyl)-2,7-naphthyridin-3-yl]amino]pyrazol-1-yl]-N,N,2-trimethyl-propanamide] was run?
A: Its Ki is 0.98 nM.

Q: With `Cc1ccncc1-c1cc2cc(NC(=O)[C@H]3C[C@@H]3C3CNC(=O)O3)ncc2c(N)n1` (stereo partly drawn) [Compound 231, trans-N-(8-amino-6-(4-methylpyridin-3-yl)-2,7-naphthyridin-3-yl)-2-((S)-2-oxooxazolidin-5-yl)cyclopropanecarboxamide] as the molecule, how does the Ki read?
A: The Ki was 0.173 nM.

Q: `CCc1ccncc1-c1cc2cc(NC(=O)N[C@@H]3CCN(C)C3=O)ncc2c(N)n1` [Compound 65, (R)-1-(8-amino-6-(4-ethylpyridin-3-yl)-2,7-naphthyridin-3-yl)-3-(1-methyl-2-oxopyrrolidin-3-yl)urea] was tested. Which Ki did it give?
A: Its Ki is 5.47 nM.

Q: With `Cc1ccncc1-c1cc2cc(NC(=O)C3C4CNCC43)ncc2c(N)n1` (stereo not drawn) [Compound 111, N-[8-amino-6-(4-methyl-3-pyridyl)-2,7-naphthyridin-3-yl]-3-azabicyclo[3.1.0]hexane-6-carboxamide] as the molecule, how does the Ki read?
A: Its Ki is 2.38 nM.

Q: How did the Ki turn out when `Cn1nccc1-c1cc2cc(NC(=O)[C@@H]3C[C@@H]3F)ncc2c(N)n1` [Compound 18, (1S,2S)—N-(8-amino-6-(1-methyl-1H-pyrazol-5-yl)-2,7-naphthyridin-3-yl)-2-fluorocyclopropanecarboxamide] was run?
A: Its Ki is 47.5 nM.

Q: How did the Ki turn out when `Cc1ccc(O)cc1-c1cc2cc(NC(=O)[C@@H]3C[C@H]3c3cnn(C)c3)ncc2c(N)n1` [Compound 287, (1R,2R)—N-[8-amino-6-(5-hydroxy-2-methylphenyl)-2,7-naphthyridin-3-yl]-2-(1-methyl-1H-pyrazol-4-yl)cyclopropane-1-carboxamide] was run?
A: Its Ki is 0.078 nM.

Q: With `Cc1ccncc1-c1nc(N)c2cnc(NC(=O)Nc3cnn(C)c3)cc2c1Cl` [Compound 163, 1-[8-amino-5-chloro-6-(4-methyl-3-pyridyl)-2,7-naphthyridin-3-yl]-3-(1-methylpyrazol-4-yl)urea] as the molecule, how does the Ki read?
A: The Ki was 1.2 nM.

Q: How did the Ki turn out when `Nc1nc(-c2cnccc2CO)cc2cc(NC(=O)[C@@H]3C[C@@H]3F)ncc12` [Compound 44, (1S,2S)—N-(8-amino-6-(4-(hydroxymethyl)pyridin-3-yl)-2,7-naphthyridin-3-yl)-2-fluorocyclopropanecarboxamide] was run?
A: Its Ki is 48 nM.

Q: With `Cn1cc([C@@H]2C[C@H]2C(=O)Nc2cc3c(Cl)c(-c4cnccc4CCO)nc(N)c3cn2)cn1` [Compound 333, (1R,2R)—N-(8-amino-5-chloro-6-(4-(2-hydroxyethyl)pyridin-3-yl)-2,7-naphthyridin-3-yl)-2-(1-methyl-1H-pyrazol-4-yl)cyclopropanecarboxamide] as the molecule, how does the Ki read?
A: Its Ki is 0.432 nM.

Q: With `Cc1ccncc1-c1cc2cc(NC(=O)[C@H]3C[C@@H]3CC#N)ncc2c(N)n1` [Compound 193, (1S,2R)—N-(8-amino-6-(4-methylpyridin-3-yl)-2,7-naphthyridin-3-yl)-2-(cyanomethyl)cyclopropane-1-carboxamide] as the molecule, how does the Ki read?
A: Its Ki is 0.135 nM.

Q: Which Ki does the source give for `C[C@H]1COC(=O)N1c1cc2cc(NC(=O)[C@@H]3C[C@H]3C#N)ncc2c(N)n1` [Compound 186, trans-N-(8-amino-6-((S)-4-methyl-2-oxooxazolidin-3-yl)-2,7-naphthyridin-3-yl)-2-cyanocyclopropanecarboxamide] here?
A: Its Ki is 4 nM.

Q: Which Ki does the source give for `Cc1ccncc1-c1cc2cc(NC(=O)C3CC34CNC4)ncc2c(N)n1` (stereo not drawn) [Compound 113, N-[8-amino-6-(4-methyl-3-pyridyl)-2,7-naphthyridin-3-yl]-5-azaspiro[2.3]hexane-2-carboxamide] here?
A: Its Ki is 3.53 nM.

same assay, conditions: Table B1-2, read-out: HPK1 Ki, L = Lanth

Q: For `Cc1cccc(F)c1-c1cc2cc(NC(=O)[C@H]3[C@@H](C)[C@@H]3c3cnn(C)c3)ncc2c(N)n1` [Compound 355, (1S,2S,3S)—N-[8-amino-6-(2-fluoro-6-methylphenyl)-2,7-naphthyridin-3-yl]-2-methyl-3-(1-methyl-1H-pyrazol-4-yl)cyclopropane-1-carboxamide], which Ki is on record?
A: The Ki was 1.8 nM.
